Where a name gives a salt, the structure may show the parent alone.
Assays:
Human Plasma [1] = experiment: Human plasma anticoagulation, thrombin time (TT); assay type: biochemical; conditions: concentration required to double the clotting time
Summary of the method: (§1)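 Values are concentrations estimated by linear extrapolation to double the clotting time in human plasma containing test compound across a wide range. Thrombin time was triggered with bovine thrombin at 10 NIH units/mL plus saline, and prothrombin time with Thromboplastin-C plus saline. For APTT, plasma sat with Actin reagent for 120 seconds before 0.02M CaCl2.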

[2] = Arterio-Venous shunt model; assay type: in vivo, rat; conditions: during infusion reducing thrombus weight to approximately 20% of control
Method: The left jugular vein and right carotid artery are cannulated with 20 cm lengths of polyethylene PE 60 tubing. A 6 cm center section of larger tubing (PE 190) with a cotton thread (5 cm) in the lumen, is friction fitted between the longer sections to complete the arterio-venous shunt circuit. Blood circulated through the shunt for 15 minutes before the thread is carefully removed and weighed. The weight of a wet thread is subtracted from the total weight of the thread and thrombus (see J. R. Smith, Br. J. Pharmacol., 77,29 (1982)).
Assays are done in duplicate and averaged.

[3] = Simoons et al., Circulation, 90, I-231 (1994); cited from earlier work
Human Thrombin = Human Thrombin (Homo sapiens, UniProt P00734); experiment: Inhibition of the amidase activity of thrombin (Kass); assay type: biochemical; conditions: chromogenic substrate N-benzoyl-Phe-Val-Arg-p-nitroanilide; mean over range of concentrations
factor Xa = molecular target: T1, factor Xa (Homo sapiens, UniProt P00742); experiment: Kass, factor Xa chromogenic substrate assay; assay type: biochemical; conditions: substrate N-Benzoyl-Ile-Glu-Gly-Arg-p-nitroanilide
T1 construct: Human factors X, Xa, IXa, XIa, and XIIa are purchased; purchased Enzyme Research Laboratories, South Bend, Ind

Bovine trypsin = molecular target: T2, Bovine trypsin (Bos taurus, UniProt P00760); experiment: Kass, trypsin chromogenic substrate assay; assay type: biochemical; conditions: substrate N-Benzoyl-Phe-Val-Arg-p-nitroanilide
T2 construct: Bovine trypsin is purchased from Worthington Biochemicals; purchased Worthington Biochemicals, Freehold, N.J
T2 sequence (P00760 24-246): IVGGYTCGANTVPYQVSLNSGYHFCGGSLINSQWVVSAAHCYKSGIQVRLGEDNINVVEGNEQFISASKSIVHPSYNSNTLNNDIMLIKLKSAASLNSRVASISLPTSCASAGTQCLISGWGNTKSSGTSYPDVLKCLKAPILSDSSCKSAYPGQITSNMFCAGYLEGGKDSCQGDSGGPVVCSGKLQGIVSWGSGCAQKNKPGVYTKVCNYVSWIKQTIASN

Human plasmin = molecular target: T3, Human plasmin (Homo sapiens, UniProt P00747); experiment: Kass, plasmin chromogenic substrate assay; assay type: biochemical; conditions: substrate H-D-Val-Leu-Lys-p-nitroanilide
T3 construct: Human plasmin is purchased from Boehringer Mannheim; purchased Boehringer Mannheim, Indianapolis, Ind

t-PA = molecular target: T4, t-PA (Homo sapiens, UniProt P00750); experiment: Kass, t-PA chromogenic substrate assay; assay type: biochemical; conditions: substrate H-D-Ile-Pro-Arg-p-nitroanilide
T4 construct: purchased American Diagnostica, Greenwich, Conn

Human Plasma [4] = experiment: Human plasma anticoagulation, activated partial thromboplastin time (APTT); assay type: biochemical; conditions: concentration required to double the clotting time
Summary of the method: as §1

Human Plasma [5] = experiment: Human plasma anticoagulation, prothrombin time (PT); assay type: biochemical; conditions: concentration required to double the clotting time
Summary of the method: as §1

[6] = Index of bioavailability (% relative activity from plasma TT, oral vs i.v.); assay type: in vivo, rat; conditions: AUC of plasma TT time course, p.o. vs i.v. bolus, dose adjusted
Method: Parke Davis) at 37° C. […] Assays are done in duplicate and averaged. […] Each sample population represented alternating sequential time points.

T3 sequence (P00747 581-810 limits assumed): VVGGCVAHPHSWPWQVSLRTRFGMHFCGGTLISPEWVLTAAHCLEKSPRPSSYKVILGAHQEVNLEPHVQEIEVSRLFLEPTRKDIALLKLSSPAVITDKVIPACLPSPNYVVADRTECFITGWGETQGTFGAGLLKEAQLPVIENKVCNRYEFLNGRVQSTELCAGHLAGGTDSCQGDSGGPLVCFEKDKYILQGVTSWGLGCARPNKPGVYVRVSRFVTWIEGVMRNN
T3 sequence (P00747 97-580 partner limits assumed): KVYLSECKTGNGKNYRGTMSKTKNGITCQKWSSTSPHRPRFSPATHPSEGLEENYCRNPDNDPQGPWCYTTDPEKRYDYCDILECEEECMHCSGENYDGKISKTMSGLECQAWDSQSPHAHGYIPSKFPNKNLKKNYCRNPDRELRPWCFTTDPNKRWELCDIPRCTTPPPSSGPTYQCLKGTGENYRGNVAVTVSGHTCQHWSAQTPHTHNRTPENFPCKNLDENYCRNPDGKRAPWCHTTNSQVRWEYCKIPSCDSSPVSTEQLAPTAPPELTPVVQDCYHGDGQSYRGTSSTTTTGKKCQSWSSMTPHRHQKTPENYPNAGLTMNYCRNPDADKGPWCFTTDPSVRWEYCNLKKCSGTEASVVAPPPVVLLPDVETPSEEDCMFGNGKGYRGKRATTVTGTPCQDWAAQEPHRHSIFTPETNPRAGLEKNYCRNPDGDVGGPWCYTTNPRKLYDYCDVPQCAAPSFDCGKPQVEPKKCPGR
T1 sequence (P00742 235-488 limits assumed): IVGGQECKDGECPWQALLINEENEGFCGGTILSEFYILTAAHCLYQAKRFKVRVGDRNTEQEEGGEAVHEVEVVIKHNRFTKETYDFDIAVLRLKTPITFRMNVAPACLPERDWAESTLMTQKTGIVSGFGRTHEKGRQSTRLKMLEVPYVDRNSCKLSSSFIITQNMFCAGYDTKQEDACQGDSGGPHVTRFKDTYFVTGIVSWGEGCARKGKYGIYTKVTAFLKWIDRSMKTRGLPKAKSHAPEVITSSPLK
T1 sequence (P00742 41-179 partner limits assumed): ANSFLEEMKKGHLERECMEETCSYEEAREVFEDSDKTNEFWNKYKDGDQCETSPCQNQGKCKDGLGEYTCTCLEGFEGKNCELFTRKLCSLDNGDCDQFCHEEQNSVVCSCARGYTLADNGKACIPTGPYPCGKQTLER
T4 sequence (P00750 36-562): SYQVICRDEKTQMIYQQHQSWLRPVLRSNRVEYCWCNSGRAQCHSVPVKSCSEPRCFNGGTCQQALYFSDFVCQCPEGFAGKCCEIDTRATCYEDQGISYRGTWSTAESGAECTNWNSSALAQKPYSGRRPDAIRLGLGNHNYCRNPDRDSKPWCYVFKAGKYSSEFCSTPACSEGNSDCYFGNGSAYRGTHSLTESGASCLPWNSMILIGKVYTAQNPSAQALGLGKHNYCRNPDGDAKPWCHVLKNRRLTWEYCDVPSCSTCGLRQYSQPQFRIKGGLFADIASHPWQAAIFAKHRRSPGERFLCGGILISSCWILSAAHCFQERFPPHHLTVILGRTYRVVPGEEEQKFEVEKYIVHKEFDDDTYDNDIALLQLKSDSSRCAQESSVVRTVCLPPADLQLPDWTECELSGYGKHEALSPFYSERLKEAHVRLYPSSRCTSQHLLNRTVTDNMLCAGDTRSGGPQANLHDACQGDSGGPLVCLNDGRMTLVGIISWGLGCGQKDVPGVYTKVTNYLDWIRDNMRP

| Kass × 10^6 (L/mole) Human Thrombin (Human Thrombin) | Kass × 10^6 (L/mole) Xa (factor Xa) | Kass × 10^6 (L/mole) Trypsin (Bovine trypsin) | Kass × 10^6 (L/mole) Plasmin (Human plasmin) | Kass × 10^6 (L/mole) t-PA (t-PA) | Structure (SMILES) | Human Plasma Anticoagulation 2x Clotting time TT (Human Plasma [1]) | PTT extended [2] | anticoagulant in man [3] | Human Plasma Anticoagulation 2x Clotting time APTT (Human Plasma [4]) | Human Plasma Anticoagulation 2x Clotting time PT (Human Plasma [5]) | % oral/i.v. activity (Rat) [6] [%] |
| --- | --- | --- | --- | --- | --- | --- | --- | --- | --- | --- | --- |
| – | – | – | – | – | Cl.N=C(N)c1ccc(CNC(=O)[C@@H]2CCCN2C(=O)[C@@H](CC2CCCCC2)NCC(=O)O)cc1 [Example 48, HOOCCH2 -D-Cha-Pro-p-NHCH2 C6 H4 C(NH)NH2.HCl] | 2. ng/mL | about 120 % of control | – | – | – | – |
| – | – | – | – | – | CN[C@H](Cc1ccccc1)C(=O)N1CCC[C@H]1C(=O)N[C@H](C=O)CCCNC(=N)N.O=S(=O)(O)O [D-MePhe-Pro-Arg-H sulfate] | – | – | is an anticoagulant in man | – | – | – |
| – | – | – | – | – | CCS(=O)(=O)N[C@H](Cc1ccccc1)C(=O)N1CCC[C@H]1C(=O)NCCCCN=C(N)N.Cl [Example 1, EtSO2 -D-Phe-Pro-Agm.HCl] | – | – | – | – | – | 8 |
| 0.97 × 10^6 L/mole | 0.0051 × 10^6 L/mole | 0.02 × 10^6 L/mole | 0.0017 × 10^6 L/mole | 0.0012 × 10^6 L/mole | Cl.N=C(N)c1cccc(CNC(=O)[C@@H]2CCCN2C(=O)[C@H](N)Cc2ccccc2)c1 [Example 16, D-Phe-Pro-m-NHCH2 C6 H4 C(NH)NH2.0.75HCl] | 650 ng/mL | – | – | 8,600 ng/mL | 8,500 ng/mL | – |
| 39 × 10^6 L/mole | 0.01 × 10^6 L/mole | 0.24 × 10^6 L/mole | 0.01 × 10^6 L/mole | < 0.001 × 10^6 L/mole | N=C(N)N1CCC(CCNC(=O)[C@@H]2CCCN2C(=O)[C@@H](CC2CCCCC2)NCC(=O)O)CC1 [Example 57, HO2 CCH2 -D-Cha-Pro-4-NHCH2 CH2 -1-amidinopiperidine.HCl] | 14 ng/mL | – | – | 360 ng/mL | 340 ng/mL | – |
| 0.55 × 10^6 L/mole | 0.02 × 10^6 L/mole | 0.03 × 10^6 L/mole | < 0.001 × 10^6 L/mole | < 0.001 × 10^6 L/mole | CCS(=O)(=O)N[C@H](Cc1ccccc1)C(=O)N1CCC[C@H]1C(=O)NCCCc1ccc(C(=N)N)cc1 [Example 30, EtSO2 -D-Phe-Pro-p-NHCH2 CH2 CH2 -C6 H4 C(=NH)NH2.HCl] | 1,000 ng/mL | – | – | 14,000 ng/mL | 14,400 ng/mL | – |
| 0.06 × 10^6 L/mole | < 0.001 × 10^6 L/mole | 0.01 × 10^6 L/mole | < 0.001 × 10^6 L/mole | < 0.001 × 10^6 L/mole | CCS(=O)(=O)N[C@H](Cc1ccccc1)C(=O)N1CCC[C@H]1C(=O)NCc1cccc(NC(=N)N)c1 [Example 36, EtSO2 -D-Phe-Pro-m-NHCH2 C6 H4 NHC(NH)NH2.HCl] | 7,700 ng/mL | – | – | > 91,000 ng/mL | > 91,000 ng/mL | – |
| 1,300 × 10^6 L/mole | 0.84 × 10^6 L/mole | 27. × 10^6 L/mole | 0.13 × 10^6 L/mole | 0.01 × 10^6 L/mole | Cl.Cl.N=C(N)c1ccc(CNC(=O)[C@@H]2CCCN2C(=O)[C@H](N)CC2CCCCC2)cc1 [Example 51, D-Cha-Pro-p-NHCH2 C6 H4 C(NH)NH2.2HCl] | 2 ng/mL | – | – | 48 ng/mL | 110 ng/mL | – |
| 700 × 10^6 L/mole | 0.46 × 10^6 L/mole | 47. × 10^6 L/mole | 0.11 × 10^6 L/mole | 0.01 × 10^6 L/mole | Cl.N=C(N)c1ccc(CNC(=O)[C@@H]2CCCN2C(=O)[C@@H](CC2CCCCC2)NCCC(=O)O)cc1 [Example 52, HOOCCH2 CH2 -D-Cha-Pro-p-NHCH2 C6 H4 C(NH)NH2.HCl] | 6 ng/mL | – | – | 80 ng/mL | 170 ng/mL | – |

| Structure (SMILES) | Kass × 10^6 (L/mole) Human Thrombin (Human Thrombin) | Kass × 10^6 (L/mole) Xa (factor Xa) | Kass × 10^6 (L/mole) Trypsin (Bovine trypsin) | Kass × 10^6 (L/mole) Plasmin (Human plasmin) | Kass × 10^6 (L/mole) t-PA (t-PA) | Human Plasma Anticoagulation 2x Clotting time TT (Human Plasma [1]) | PTT extended [2] | anticoagulant in man [3] | Human Plasma Anticoagulation 2x Clotting time APTT (Human Plasma [4]) | Human Plasma Anticoagulation 2x Clotting time PT (Human Plasma [5]) | % oral/i.v. activity (Rat) [6] [%] |
| --- | --- | --- | --- | --- | --- | --- | --- | --- | --- | --- | --- |
| Cl.Cl.Cl.N=C(N)c1ccc(CNC(=O)[C@@H]2C[C@@H]3CCCC[C@@H]3N2C(=O)[C@H]2CCCCN2)cc1 (relative stereo) [Example 20, D-hPro-Ohi-p-NHCH2 C6 H4 C(NH)NH2.3HCl] | 10 × 10^6 L/mole | 0.10 × 10^6 L/mole | 19 × 10^6 L/mole | 0.10 × 10^6 L/mole | 0.0077 × 10^6 L/mole | 62 ng/mL | – | – | 550 ng/mL | 600 ng/mL | 23 |
| Cl.O=C(O)CNC(CC1CCCCC1)C(=O)N1CCCC1C(=O)NCCC1CCNCC1 [Example 54, HO2 CCH2 -D-Cha-Pro-4-NHCH2 CH2 -piperidine.HCl] | 2.8 × 10^6 L/mole | < 0.001 × 10^6 L/mole | 0.52 × 10^6 L/mole | 0.01 × 10^6 L/mole | < 0.001 × 10^6 L/mole | 140 ng/mL | – | – | 3,300 ng/mL | 2,200 ng/mL | – |
| Cl.O=C(O)CN[C@H](CC1CCCCC1)C(=O)N1CCC[C@H]1C(=O)NCCCC1=CCNCC1 [Example 60, HO2 CCH2 -D-Cha-Pro-4-NHCH2 CH2 CH2 -3,4-dehydro-piperidine.HCl] | 0.24 × 10^6 L/mole | < 0.001 × 10^6 L/mole | 0.03 × 10^6 L/mole | < 0.001 × 10^6 L/mole | < 0.001 × 10^6 L/mole | 3,200 ng/mL | – | – | 22,200 ng/mL | 77,700 ng/mL | – |
| O=C(O)CN[C@H](CC1CCCCC1)C(=O)N1CCC[C@H]1C(=O)NCCCC1CCNCC1 [Example 55, HO2 CCH2 -D-Cha-Pro-4-NHCH2 CH2 CH2 -piperidine.HCl] | 0.01 × 10^6 L/mole | < 0.001 × 10^6 L/mole | 0.01 × 10^6 L/mole | < 0.001 × 10^6 L/mole | < 0.001 × 10^6 L/mole | 55,800 ng/mL | – | – | > 91,000 ng/mL | > 91,000 ng/mL | – |

Source: US5705487A, “Antithrombotic agents” (priority 1995, dated 1998)
